In US20200171065A1, “METHOD FOR TREATING LIVER DISEASE WITH KINSENOSIDE” (HUAZHONG UNIVERSITY OF SCIENCE AND TECHNOLOGY, priority 2017, published 2020):

System: SD mice with ANIT induced intrahepatic cholestasis
Test: ANIT-induced intrahepatic cholestasis
Assay type: in vivo
Description: 42 SPF SD mice were purchased and raised in the SPF experimental animal center of Tongji Medical College of Huazhong University of Science and Technology. They were provided with standard diet and drinking water. The room temperature was controlled at 23±2° C. After 3 days of adaptive feeding, they were given drugs by intragastric administration. 42 SD mice were randomly divided into 7 groups (normal control group, ANIT model group, KD low-dose group, KD medium dose group, KD high-dose group, UDCA positive control group and KD negative control group), 6 mice in each group were weighed and recorded daily. […] Thereafter, the drug was given again every 24 hours for 3 times, and the animals in each group were fasted (water was provided) after the third time. 72 hours later, the animals were killed and samples were collected.

## C[C@H](CCC(=O)O)[C@H]1CC[C@H]2[C@@H]3[C@@H](O)C[C@@H]4C[C@H](O)CC[C@]4(C)[C@H]3CC[C@]12C [UDCA, reference compound]
KD 50, 100, 200 mg/kg or UDCA 80 mg/kg by gavage
  plasma color: turned light yellow similar to that of the normal control group
Different doses of KD, UDCA treatment group
  hepatic sinusoid and inflammatory cell infiltration (HE staining): normal hepatic sinusoid, obvious hepatocyte gap, and obvious recovery of inflammatory cell infiltration
low, medium and high doses of KD, 80 mg/kg UDCA
  plasma ALT, AST, AKP, TBIL and DBIL: can significantly reduce ALT, AST, AKP, TBIL and DBIL
Medium and high doses of KD, 80 mg/kg UDCA
  plasma TBA: can significantly reduce TBA
